Experiment [1] has as its target T1, ThyX (Thermotoga maritima, UniProt Q9WYT0).
T1 sequence (Q9WYT0 1-220): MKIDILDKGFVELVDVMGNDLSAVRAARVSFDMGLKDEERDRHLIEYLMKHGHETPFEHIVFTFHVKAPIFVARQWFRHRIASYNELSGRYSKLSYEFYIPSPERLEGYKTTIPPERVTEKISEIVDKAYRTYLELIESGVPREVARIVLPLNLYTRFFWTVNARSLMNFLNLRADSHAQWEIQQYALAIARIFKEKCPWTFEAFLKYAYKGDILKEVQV
Kind of experiment: anaerobic methylation assay with purified ThyX (MS, […]-NMR); stopped-flow of FADH−•dUMP complex. The experiment is classed as biochemical.

In experiment [2] the target is T1, ThyX. Kind of experiment: stopped-flow kinetics of reduced ThyX-dUMP (kon/koff). The experiment is classed as binding.

As to `O=c1ccn([C@H]2C[C@H](O)[C@@H](COP(=O)(O)O)O2)c(=O)[nH]1` [dUMP], the “anaerobic methylation assay with purified ThyX (MS, 13C-NMR); stopped-flow of FA” value in experiment [1] was “confirmed the formation of dTMP only in the simultaneous presence of ThyX, NADPH, and CH2O”.
As usually defined, the Kd is the constant that tells how readily two partners part at equilibrium. A low value points to a tighter complex. In experiment [2], `C=O` [formaldehyde] registered a Kd of about 20 mM.

The values above are taken from PMC8316439, “An enzymatic activation of formaldehyde for nucleotide methylation” (Nature Communications, 2021).
